Format in all cases: cell-based, murine
One experiment concerns B16F10 melanoma cells. As to the kind of experiment: Cell pigmentation of treated B16F10 cultures (FIG. 1). Particulars: 50 μg/ml peptide, 5 days. How it is done:
B16F10 melanoma cells were treated with 10-50 μg/ml peptide of SEQ ID NO: 1 (“Lf H-392-399”) for 5 days with a medium change at day 3. The cells and medium were recovered in test tubes. Kojic acid is used as […] in the cellular study due to known inhibitory effects on tyrosinase activity. IBMX is used as positive control in the cellular study due to known elevator of cellular cAMP level, […].
(§1) B16F10 murine melanoma cells were cultured in phenol red-free DMEM with 10% fetal bovine serum and penicillin/streptomycin (100 IU/50 […]) in a humidified atmosphere containing 5% CO2 in air at 37° C.

In a further experiment the test system is B16F10 cells. In words: Melanin content assay. Particulars: 10 and 50 μg/ml peptide, 5 days, p<0.05 compared to control. How it is done:
as §1
Melanin contents of cultured B16F10 cells were measured according to the method (Lee et al., J Invest Dermatol 124, 405-411, 2005) with a slight modification. Briefly, B16F10 cells were seeded in 6-well plate (2×10^4 cells/well) and incubated overnight to allow cells to adhere. After treating with various test samples in an incubator for 5 days, washed, trypsinized and counted before pelleting. Melanin per cell was quantified after boiling in 1 M NaOH for 1 hour and melanin content in each sample was read from a calibration curve against synthetic eumelanin at 400 nm and converted to means±SE melanin pg/cell from 3 independent experiments.

Experiment [1] has as its system Tyrosinase. As to the kind of experiment: DOPA staining. Particulars: B16F10 cells, 10 and 50 μg/ml peptide, 4 days. Here is the method: as §1
DOPA staining was also performed to measure tyrosinase enzyme activity. B16F10 cells were seeded in 6-well plate (2×10^4 cells/well) and incubated overnight to allow cells to adhere. After treating with various test samples in an incubator for 4 days, cells were washed with PBS, fixation with 2% paraformaldehyde and washing with PBS a further three times, the cells were incubated with 0.1% DOPA (dissolved in 0.1 M PBS) at 37° C. for 5 hour, and observed using light microscopy (Wang et al., Exp Ther Med 6, 967-972, 2013).

The test system of experiment [2] is Tyrosinase. In words: Tyrosinase assay (cell lysate, L-DOPA). Particulars: B16F10 cells, 10 and 50 μg/ml peptide, 5 days; p<0.05 compared to control. How it is done:
as §1
Tyrosinase is the rate limiting enzyme in the melanogenic pathway. Its measurement provides a highly specific and sensitive indication of degree of induction of melanogenesis. Tyrosinase enzyme activity of cultured B16F10 cells were measured according to the method of (Bellei et al., J Biol Chem 285, 7288-7299, 2010) with a slight modification. Briefly, B16F10 cells were seeded in 6-well plate (2×10^4 cells/well) and incubated overnight to allow cells to adhere. After treating with various test samples in an incubator for 5 days, cells were washed with PBS and then harvested using trypsin. At the end point, the cells were solubilized with phosphate buffer (pH 6.8) containing 1% Triton X-100. The cells were then disrupted by freezing and thawing, and the lysates were clarified by centrifugation at 10,000×g for 10 min. After protein quantification and adjustment of protein concentrations with lysis buffer, 100 μl of each lysate (each containing the same amount of protein) were aliquoted into the wells of a 96-well plate, and 100 μl of 5 mM L-DOPA were then added to each well. The absorbance was measured spectrophotometrically at 475 nm following a 30-min incubation period at 37° C. […]

As to “SSASTTED (listed as Homo sapiens) [Lf H-392-399]”, in the experiment with B16F10 melanoma cells, the cell pigmentation result was “reduced cell pigmentation”. Further, in the experiment with B16F10 cells, the “melanin synthesis (melanin content in cells and melanin secretion in culture medium)” value is listed as “significantly decreased melanin synthesis”. In addition, the DOPA staining entry with Tyrosinase [1] is “weaker DOPA staining”. In the experiment with Tyrosinase [2], the tyrosinase activity result is reported as “significantly decreased tyrosinase activity”.

(Values after patent US9814663B2, “Peptide, method and composition for inhibiting melanogenesis” (RENORIGIN INNOVATION INSTITUTE CO., LTD., priority 2016, dated 2017).)
